Assay results as given in the supplement of paper PMC10331698.
± gives the standard deviation of the averaged measurements.

What was measured:
Experiment in all cases: level (log10 ratio to DMSO vehicle control); higher = higher biomarker level / cell amount than vehicle control
Details in all cases: in DMSO
[1] = compound: O=C(O)C(F)(F)C(F)(F)C(F)(F)C(F)(F)C(F)(F)C(F)(F)C(F)(F)C(F)(F)Cl [9-Chloro-perfluorononanoic acid]
Experimental: (§1)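 BioMAP Diversity Plus panel of 12 human primary cell co-culture systems (3C, 4H, LPS, SAg, BT, BF4T, BE3C, CASM3C, HDF3CGF, KF3CT, MyoF, Mphg). Compounds were added 1 h before stimulation and left for 24 h (MyoF 48 h; BT 72 h for soluble read-outs or 6 d for IgG). Biomarkers were read by ELISA, cytotoxicity by SRB, PBMC viability and proliferation by Alamar Blue. Each well value was divided by the mean of 8 DMSO control wells on the same plate and log10 transformed; duplicate blinded samples were tested at 4 concentrations.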

[2] = compound: O=S(=O)(O)C(F)(F)C(F)(F)C(F)(F)C(F)(F)C(F)(F)C(F)(F)C(F)(F)C(F)(F)F [Perfluorooctanesulfonic acid]
Experimental: as §1

[3] = compound: FC(F)(F)C(F)(F)C(F)(F)C(F)(F)C(F)(F)C(F)(F)C(F)(F)CCI [1-Iodo-1H,1H,2H,2H-perfluorononane]
Experimental: as §1

[4] = compound: C=CC(=O)OCCC(F)(F)C(F)(F)C(F)(F)C(F)(F)F [2-(Perfluorobutyl)ethyl acrylate]
Experimental: as §1

[5] = compound: O=C(O)CCC(F)(F)C(F)(F)C(F)(F)C(F)(F)C(F)(F)F [2H,2H,3H,3H-Perfluorooctanoic acid]
Experimental: as §1

[6] = compound: O=C(O)CCC(F)(F)C(F)(F)C(F)(F)F [3:3 Fluorotelomer carboxylic acid]
Experimental: as §1

[7] = compound: O=S(=O)(O)C(F)(F)C(F)(F)C(F)(F)C(F)(F)F [Perfluorobutanesulfonic acid]
Experimental: as §1

Test System	level (log10) ([1]; 6700 nM)	level (log10) ([1]; 20000 nM)	level (log10) ([2]; 6700 nM)	level (log10) ([2]; 20000 nM)	level (log10) ([2]; 60000 nM)	level (log10) ([3]; 6700 nM)	level (log10) ([3]; 20000 nM)	level (log10) ([4]; 6700 nM)	level (log10) ([4]; 20000 nM)	level (log10) ([4]; 60000 nM)	level (log10) ([5]; 6700 nM)	level (log10) ([5]; 20000 nM)	level (log10) ([5]; 60000 nM)	level (log10) ([6]; 6700 nM)	level (log10) ([6]; 20000 nM)	level (log10) ([6]; 60000 nM)	level (log10) ([7]; 6700 nM)	level (log10) ([7]; 20000 nM)	level (log10) ([7]; 60000 nM)
3C:CD87/uPAR	-0.013 ± 0.017	-0.011 ± 0.038	0.04 ± 0.037	0.0285 ± 0.022	0.0235 ± 0.036	0.0105 ± 0.019	0.0225 ± 0.016	0.0065 ± 0.00071	0.0145 ± 0.005	0.004 ± 0.017	-0.0155 ± 0.043	-0.0055 ± 0.016	-0.021 ± 0.023	0.0055 ± 0.011	-0.017 ± 0.0057	-0.0125 ± 0.018	-0.007 ± 0.027	-0.0075 ± 0.00071	-0.0235 ± 0.022
3C:CXCL8/IL-8	0.005 ± 0.037	0.0235 ± 0.063	0.009 ± 0.024	0.0095 ± 0.026	0.049 ± 0.047	0.0085 ± 0.011	0.0165 ± 0.005	-0.0155 ± 0.015	-0.02 ± 0.0085	0.003 ± 0.024	-0.032 ± 0.075	0.005 ± 0.0042	0.0265 ± 0.0092	-0.004 ± 0.0014	0.0045 ± 0.012	0.023 ± 0.044	0.0045 ± 0.00071	0.008 ± 0.021	0.071 ± 0.04
3C:CXCL9/MIG	-0.005 ± 0.0042	0.0065 ± 0.0078	0.0035 ± 0.00071	-0.002 ± 0.0057	0.009 ± 0.0057	0.002 ± 0.0042	0.007 ± 0.013	0.0135 ± 0.013	-0.011 ± 0.0099	-0.0025 ± 0.0035	-0.006 ± 0.013	-0.007 ± 0.027	-0.0075 ± 0.021	0.0045 ± 0.0021	-0.001 ± 0.0028	0.001 ± 0.0014	0.009 ± 0.016	0.009 ± 0.017	0.0175 ± 0.0021
3C:HLA-DR	-0.0105 ± 0.0078	0.004 ± 0.021	0.0005 ± 0.011	-0.0095 ± 0.021	0.0095 ± 0.023	-0.001 ± 0.017	0.0155 ± 0.025	0.035 ± 0.013	0.0285 ± 0.0035	-0.046 ± 0.058	-0.0085 ± 0.00071	-0.019 ± 0.023	-0.001 ± 0.0071	-0.0055 ± 0.029	-0.0155 ± 0.013	-0.0105 ± 0.0092	-0.0015 ± 0.015	-0.007 ± 0.0057	-0.006 ± 0.013
3C:Proliferation	0.016 ± 0.079	0.019 ± 0.041	0.0055 ± 0.037	0.0115 ± 0.036	-0.022 ± 0.044	-0.019 ± 0.0085	-0.027 ± 0.0057	-0.0445 ± 0.049	-0.088 ± 0.028	-0.304 ± 0.07	-0.0415 ± 0.022	-0.038 ± 0.033	-0.007 ± 0.0014	-0.0215 ± 0.054	-0.0175 ± 0.091	0.0195 ± 0.049	-0.002 ± 0.0014	0.017 ± 0.031	-0.0525 ± 0.023
3C:SRB	-0.0005 ± 0.005	-0.0165 ± 0.0035	0.018 ± 0.0042	-0.008 ± 0.0099	-0.0625 ± 0.015	0.0125 ± 0.015	0.0295 ± 0.03	0.0005 ± 0.021	0.0035 ± 0.0092	-0.0345 ± 0.0078	-0.002	-0.0085 ± 0.0078	-0.009 ± 0.0085	-0.0095 ± 0.00071	-0.006 ± 0.0028	-0.012 ± 0.0099	0.004 ± 0.0099	-0.0095 ± 0.0035	-0.021 ± 0.0042
4H:CCL2/MCP-1	-0.001 ± 0.014	-0.0245 ± 0.0035	-0.001 ± 0.0085	-0.0275 ± 0.021	-0.0255 ± 0.005	-0.0175 ± 0.019	0.0395 ± 0.1	-0.0405 ± 0.028	-0.043 ± 0.037	0.009 ± 0.11	0.009 ± 0.0042	-0.008 ± 0.0057	0.0025 ± 0.0064	-0.032 ± 0.048	-0.0525 ± 0.012	0.007 ± 0.013	-0.021 ± 0.0042	-0.0095 ± 0.023	-0.017 ± 0.018
4H:CCL26/Eotaxin-3	-0.04 ± 0.011	0.016 ± 0.037	-0.014 ± 0.0014	-0.032 ± 0.0028	-0.0595 ± 0.0064	0.018 ± 0.0057	-0.004 ± 0.028	-0.0355 ± 0.039	-0.006 ± 0.0071	0.0135 ± 0.0078	0.032 ± 0.017	0.0095 ± 0.016	0.0125 ± 0.015	-0.005 ± 0.0071	-0.004	-0.0225 ± 0.043	-0.0025 ± 0.054	-0.001 ± 0.051	-0.048 ± 0.028
4H:CD62P/P-selectin	-0.001 ± 0.065	0.0815 ± 0.023	0.0345 ± 0.0078	0.061 ± 0.016	0.097 ± 0.018	0.0005 ± 0.037	-0.0185 ± 0.06	0.0065 ± 0.064	-0.064 ± 0.047	-0.102 ± 0.036	0.005 ± 0.048	-0.041 ± 0.073	0.002 ± 0.034	0.0135 ± 0.042	0.0445 ± 0.025	-0.003 ± 0.02	-0.0155 ± 0.035	0.0045 ± 0.016	-0.0085 ± 0.015
4H:CD87/uPAR	0.0055 ± 0.033	0.002 ± 0.0099	0.07 ± 0.033	0.065 ± 0.014	0.0945 ± 0.049	0.0135 ± 0.00071	0.0025 ± 0.026	-0.005 ± 0.038	0.0055 ± 0.0035	0.025 ± 0.0085	-0.008 ± 0.04	-0.0065 ± 0.03	-0.062 ± 0.037	0.001 ± 0.027	-0.014 ± 0.0071	-0.045 ± 0.011	0.0115 ± 0.052	0.0235 ± 0.022	0.025 ± 0.021
4H:CD106/VCAM-1	-0.0145 ± 0.0078	0.0035 ± 0.013	0.016 ± 0.0085	-0.029	-0.0155 ± 0.0064	-0.003 ± 0.027	-0.0585 ± 0.083	-0.0215 ± 0.013	-0.0495 ± 0.056	-0.123 ± 0.085	-0.0135 ± 0.0092	-0.0325 ± 0.026	-0.0405 ± 0.029	-0.009 ± 0.0028	-0.014 ± 0.014	-0.0165 ± 0.013	-0.024 ± 0.016	-0.029 ± 0.028	0.001 ± 0.033
4H:SRB	-0.0015 ± 0.00071	-0.0055 ± 0.0035	-0.0005 ± 0.012	-0.0065 ± 0.011	-0.0085 ± 0.023	0.0165 ± 0.0092	0.024 ± 0.024	-0.003 ± 0.0085	0.0105 ± 0.021	-0.0205 ± 0.016	-0.004 ± 0.0099	-0.0115 ± 0.016	-0.001 ± 0.014	-0.0125 ± 0.022	-0.003 ± 0.013	-0.0185 ± 0.012	0.0005 ± 0.0064	0.002 ± 0.0028	0 ± 0.0099
4H:VEGFR2	-0.108 ± 0.011	-0.0395 ± 0.013	0.0265 ± 0.029	0.0155 ± 0.0064	0.019 ± 0.042	-0.0015 ± 0.026	0.0225 ± 0.06	0.01	-0.006 ± 0.017	-0.0035 ± 0.037	0.008 ± 0.011	0.02 ± 0.017	0.0155 ± 0.03	-0.0045 ± 0.0078	-0.0135 ± 0.011	0.0075 ± 0.063	-0.049 ± 0.04	-0.0215 ± 0.026	-0.012 ± 0.0071
